Test results as given in paper PMC8998978, “Toward a Treatment of Cancer: Design and In Vitro/In Vivo Evaluation of Uncharged Pyrazoline Derivatives as a Series of Novel SHP2 Inhibitors” (International Journal of Molecular Sciences, 2022).

Columns and labels:
[1] = tested on: human cancer cells; test: Cell viability assay, panel of cancer cells; assay type: cell-based; details: 11 cancer cell lines, 72 h, read-out: IC50 values against cancer cells (range over the panel)
Text: Human colon cancer cell line HCT116, hepatoma cell lines HepG2 and BEL-7402, lung adenocarcinoma cell lines NCI-H1975 and 95-D, pancreatic cancer cell line Panc-1, breast cancer cell line MDA-MB-231, NSCLC cell line NCI-H1299, ovarian cancer cell line SK-OV-3, leukemia cell line K562, glioma cell line U87, colon epithelial cell line NCM460 and umbilical vein endothelial cell line HUVEC were purchased from the Institute of Biochemistry and Cell Biology, Chinese Academy of Sciences (Shanghai, China). HCT116 cell line was cultured in McCoy’s 5A medium (Hyclone, Logan, UT, USA). HepG2, 95-D, Panc-1, MDA-MB-231, BEL-7402, SK-OV-3, U87 and NCM460 cell lines were cultured in DMEM-High glucose medium (Hyclone, Logan, UT, USA). NCI-H1975, NCI-H1299 and HUVEC cell lines were cultured in RPMI 1640 medium (Hyclone, Logan, UT, USA). K562 cell line was cultured in IMDM medium (Hyclone, Logan, UT, USA). […]
The inhibition rate of cell viability was detected by 3-(4,5-dimethyl-2-thiazolyl)-2,5-diphenyl-2-H-tetrazolium bromide (MTT, Solarbio, Beijing, China) or Sulforhodamine B (SRB, Sigma-Aldrich, St. Louis, MO, USA) assay. […] The absorbance at 570 nm was measured in a multimode reader (Berthold Technologies, Germany). […] Finally, Tris–HCl solution was added, and the absorbance at 515 nm was detected in a multimode reader (Berthold Technologies, Germany).

[2] = target: T1, recombinant human SHP2 protein (Homo sapiens, UniProt Q06124); test: SHP2 inhibition assay (pNPP substrate); assay type: biochemical; details: pNPP 4 mM, SHP2 240 nM, 37 °C, 30 min; means ± SD
T1 sequence (Q06124 1-593): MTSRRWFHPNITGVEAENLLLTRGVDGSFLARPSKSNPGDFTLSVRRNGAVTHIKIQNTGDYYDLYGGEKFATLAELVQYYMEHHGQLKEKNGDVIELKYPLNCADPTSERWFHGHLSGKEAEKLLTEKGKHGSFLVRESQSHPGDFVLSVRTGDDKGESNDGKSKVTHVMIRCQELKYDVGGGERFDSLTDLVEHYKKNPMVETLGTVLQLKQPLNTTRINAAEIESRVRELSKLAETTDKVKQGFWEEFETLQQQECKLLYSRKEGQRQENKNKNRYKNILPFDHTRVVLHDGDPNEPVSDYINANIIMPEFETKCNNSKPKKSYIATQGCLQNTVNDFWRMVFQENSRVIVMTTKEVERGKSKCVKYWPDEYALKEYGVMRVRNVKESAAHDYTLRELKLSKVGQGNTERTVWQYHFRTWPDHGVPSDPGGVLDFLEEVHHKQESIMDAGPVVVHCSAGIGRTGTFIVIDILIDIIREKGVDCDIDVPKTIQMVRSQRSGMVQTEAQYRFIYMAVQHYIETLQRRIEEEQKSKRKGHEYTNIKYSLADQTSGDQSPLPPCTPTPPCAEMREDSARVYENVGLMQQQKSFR
Experimental: pGEX-4T1 SHP2 WT (plasmid #8322) was purchased from Addgene. […] Then, 0.2 mM IPTG (Sangon Biotech, Shanghai, China) was added to induce the expression of protein at 30 °C for 4 h followed by centrifugation and cells collection. Cells were then broken by ultrasound in lysis buffer (20 mM Tris–HCl (pH 8.0), 100 mM KCl, 10% glycerol, 1 mM DTT, 0.5% Triton X-100) on ice. The supernatant was collected by centrifugation at 10,000× g for 15 min at 4 °C. The BeaverBeads GSH (Beaver Biosciences Inc., Guangzhou, China) washed by lysis buffer were incubated with the supernatant for 2 h at 4 °C. […] Then, the experiment was performed in a final volume of 100 μL containing 10 mM Tris–HCl (pH 7.5), 25 mM NaCl, 1 mM EDTA and 4 mM pNPP in a 96-well plate at 37 °C for 30 min. The amount of product p-nitrophenol was determined by the absorbance at 405 nm in a multimode reader (Berthold Technologies GmbH & Co.KG, Bad Wildbad, Baden Württemberg, Germany). The IC50 value was calculated by GraphPad Prism 7.0 software (GraphPad Inc, San Diego, CA, USA).

## CCOc1ccc(Oc2ccc(C3=NN(C4=NC(=O)CS4)C(c4cc(O)c(O)c(Br)c4Br)C3)cc2)cc1 (centres unmarked) [Compound 4o, 2-(5-(2,3-dibromo-4,5-dihydroxyphenyl)-3-(4-(4-ethoxyphenoxy)phenyl)-4,5-dihydro-1H-pyrazol-1-yl)thiazol-4(5H)-one]
[1]
  IC50: 2.64 to 10.2 µM
[2]
  IC50: 1.56 ± 0.25 µM
